Patent US11958865B1, “Leucine-rich repeat kinase 2 (LRRK2) inhibitors” (H. Lundbeck A/S, priority 2022, dated 2024)
Like-named read-outs stand apart in the source and are kept apart here.

Key:
[1] = Rat brain disposition after oral gavage; format: in vivo, male Sprague-Dawley rats; details: male, Sprague-Dawley, oral 10 mg/kg, 0.5 h, mean ± stdev
Experimental: Brain disposition was evaluated in male Sprague-Dawley rats (n=3, standard body weight). Briefly, test compound was formulated as a simple suspension (0.5% HPMC in water) then administered by oral gavage (10 mg/kg, 10 mL/kg or 5 mg/kg, 10 mL/kg). At the designated time point (0.5 or 1 h post dose) rats were sacrificed and terminal blood and brain samples taken. Isolated plasma and brain homogenates were extracted by standard protein precipitation in acetonitrile, containing internal standard. Diluted extracts were analyzed by liquid-chromatography coupled with tandem mass spectrometry detection (LC-MS/MS) using a bioanalytical method. Concentrations of test compound in plasma and brain were quantified against matrix matched calibration standards. The total plasma and brain concentration time data are presented in Table 4 alongside the calculated brain Kp (total brain concentration:total plasma concentration ratio).
The total brain-to-plasma partition coefficient (brain Kp) is given by the ratio of the total brain concentration and total plasma concentration of the compound according to the equation below: […]
Based on the measured rat fuplasma and fubrain values and the brain Kp the unbound brain-to-plasma partition coefficient (brain Kp,uu for each compound was calculated. The Kp,uu parameter describes the extent of brain penetration for each compound, i.e. the parameter gives a direct quantitative description of how the blood-brain barrier (BBB) handles the compounds regarding passive transport and active influx/efflux. The brain Kp,uu is given by the equation below: […]

[2] = target: T1, LRRK2 WT (Homo sapiens (Human), UniProt Q5S007); test: LRRK2 wild-type ADP-Glo kinase assay; format: biochemical; details: read-out: LRRK2 WT ADPGlo IC50
T1 sequence (Q5S007 970-2527): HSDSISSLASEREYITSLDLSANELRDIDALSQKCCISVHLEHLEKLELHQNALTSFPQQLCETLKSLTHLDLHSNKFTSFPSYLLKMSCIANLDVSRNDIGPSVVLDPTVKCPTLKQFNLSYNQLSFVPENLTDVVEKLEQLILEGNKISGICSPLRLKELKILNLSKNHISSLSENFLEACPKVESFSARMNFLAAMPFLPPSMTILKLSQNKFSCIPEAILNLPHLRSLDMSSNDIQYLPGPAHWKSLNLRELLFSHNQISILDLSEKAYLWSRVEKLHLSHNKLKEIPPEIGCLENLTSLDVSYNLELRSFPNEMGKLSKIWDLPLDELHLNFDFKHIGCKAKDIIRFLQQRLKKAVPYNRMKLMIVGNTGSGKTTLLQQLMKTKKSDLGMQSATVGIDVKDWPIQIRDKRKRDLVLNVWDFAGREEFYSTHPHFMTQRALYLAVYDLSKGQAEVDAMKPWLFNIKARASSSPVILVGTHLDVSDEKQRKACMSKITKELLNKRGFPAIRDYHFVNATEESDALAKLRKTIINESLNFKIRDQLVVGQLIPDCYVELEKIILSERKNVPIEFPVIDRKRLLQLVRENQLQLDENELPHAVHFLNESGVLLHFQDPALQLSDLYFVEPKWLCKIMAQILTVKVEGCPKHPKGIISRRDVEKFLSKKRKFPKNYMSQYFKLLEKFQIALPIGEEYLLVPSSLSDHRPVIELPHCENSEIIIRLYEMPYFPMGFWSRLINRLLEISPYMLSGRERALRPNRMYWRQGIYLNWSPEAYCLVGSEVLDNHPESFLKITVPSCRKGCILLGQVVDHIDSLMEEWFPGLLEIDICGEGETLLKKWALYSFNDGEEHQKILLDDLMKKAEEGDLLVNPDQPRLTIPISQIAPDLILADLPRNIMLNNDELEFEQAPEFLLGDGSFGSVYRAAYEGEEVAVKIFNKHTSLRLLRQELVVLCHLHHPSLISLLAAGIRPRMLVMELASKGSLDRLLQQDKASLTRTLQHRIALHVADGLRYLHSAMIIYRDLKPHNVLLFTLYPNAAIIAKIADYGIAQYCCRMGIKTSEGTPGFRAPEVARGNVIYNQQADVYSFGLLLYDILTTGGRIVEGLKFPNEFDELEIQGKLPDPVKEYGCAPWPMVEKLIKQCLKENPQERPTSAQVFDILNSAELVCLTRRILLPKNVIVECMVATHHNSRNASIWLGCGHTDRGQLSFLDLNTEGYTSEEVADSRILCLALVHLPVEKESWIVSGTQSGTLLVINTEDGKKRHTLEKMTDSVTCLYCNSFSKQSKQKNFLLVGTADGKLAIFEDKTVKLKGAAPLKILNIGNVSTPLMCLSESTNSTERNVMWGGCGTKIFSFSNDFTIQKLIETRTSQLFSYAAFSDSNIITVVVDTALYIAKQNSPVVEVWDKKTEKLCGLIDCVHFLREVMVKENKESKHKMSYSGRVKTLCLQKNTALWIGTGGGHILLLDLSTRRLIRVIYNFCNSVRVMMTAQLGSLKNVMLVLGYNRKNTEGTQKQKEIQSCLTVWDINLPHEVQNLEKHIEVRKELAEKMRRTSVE
Experimental: LRRK2 kinase activity was measured using an ADP-Glo kinase assay from Promega Corporation. The assay is a homogeneous luminescence-based assay that measures ADP formed from a kinase reaction. The ADP is converted into ATP, which is used to generate light in a luciferase reaction. The luminescence generated correlates with kinase activity.
The LRRK2 kinase was obtained from Invitrogen (Life Technologies Corporation) and comprises residue 970 to 2527 of the full length human wild-type LRRK2 kinase. The kinase reactions were performed in a 10 μL volume in 384-well plates. The kinase reaction buffer consisted of 50 mM Tris pH 8.5, 0.01% BRIJ-35, 10 mM MgCl2, 1 mM EGTA, and 2 mM DTT.
The reaction mixture (10 μl total volume) was incubated for 3 hours at room temperature (RT, ca. 25° C.), before the reaction was terminated by addition of 10 μl ADP-Glo reagent. The mixture was further incubated for 60 minutes at RT before addition of 20 μl Kinase detection reagent from the ADP-Glo assay kit. Luminescence signal was measure on a BMG Labtech Pherastar FSX multimode microplate reader. The signal integration time was 0.5 s.
Test compound potency (Ki,app) was estimated by nonlinear regression using the tight-binding fit model in GeneData Screener (GeneData AG). In cases where the Ki,app could not be determined, the % inhibition at the highest tested concentration is reported. The tight-binding fit model is given by euquation (2). […] Ki,app is the apparent dissociation constant of the inhibitor. The IC50 can be calculated as given by equation (3). Equation (3): IC50=Ki,app+[E]/2 (3) IC50 estimates were obtained from independent experiment and the logarithmic average was calculated.

[3] = target: T1, LRRK2 WT; test: LRRK2 wild-type LanthaScreen TR-FRET kinase activity assay; format: biochemical; details: 1 nM kinase, 1.3 mM ATP, n≥2 tests
Experimental: (§1) LRRK2 kinase activity was measured using a LanthaScreen kinase activity assay available from Invitrogen (Life Technologies Corporation). […] The phosphorylated peptide is recognized by a terbium-labelled phospho-specific anti-LRRKtide antibody (pLRRKtide antibody), obtainable from Life Technologies Corporation) and, subsequently, the phosphorylated LRRKtide can be quantified by the extent of TR-FRET between the terbium donor and fluorescein acceptor.
(§2) As discussed above, this mutation increases the kinase activity relative to the wild type. The kinase reactions were performed in a 20 μL volume in 384-well plates. The kinase reaction buffer consisted of 50 mM Tris pH 8.5, 0.01% BRIJ-35, 10 mM MgCl2, 1 mM EGTA, and 2 mM DTT.
(§3) The mixture was further incubated for 30 minutes at RT. TR-FRET was measured by excitation of the terbium-donor with 340 nm light and subsequent (delay time […]) measurement of terbium and fluorescein emission at 495 nm and 520 nm, respectively, over a time window of […]. The measurement was repeated 30 times for fluorescein and 30 times for terbium emission with a […] between repeats. TR-FRET measurements were performed on a Biotek Synergy plate. The TR-FRET signal was calculated as the emission-ratio at 520 nm over 495 nm.
(§4) Test compound potency (IC50) was estimated by nonlinear regression using the sigmoidal dose-response (variable slope) using Xlfit 4 (IDBS, Guildford, Surrey, UK, model 205). Were the IC50 could not be determined the % inhibition at the highest tested concentration is given by equation 1. Equation (1): y=(A+((B−A)/(1+((C/x)^D)))) (1)
(§5) where y is the normalized TR-TRET ratio measurement for a given concentration of test compound, x is the concentration of test compound, A is the estimated efficacy (% inhibition) at infinite compound dilution, and B is the maximal efficacy (% inhibition). C is the IC50 value and D is the Hill slope coefficient. IC50 estimates were obtained from independent experiment and the logarithmic average was calculated.

[4] = target: LRRK2 G2019S (Homo sapiens (Human), UniProt Q5S007, G2019S); test: LRRK2 G2019S LanthaScreen TR-FRET kinase activity assay; format: biochemical; details: 250 pM kinase, 1.3 mM ATP, n≥2 tests
LRRK2 G2019S, sequence (Q5S007 970-2527 G2019S): as the sequence (Q5S007 970-2527) above, with G1050S counted along it
Experimental: as §1, §2, §3, §4, §5

[5] = Fraction unbound in rat plasma and brain homogenate by equilibrium dialysis; format: in vitro ADME, male Sprague-Dawley rat; details: 1 μM, equilibrium dialysis 5 h at 37° C.
Experimental: The fraction of unbound compound in male Sprague-Dawley rat plasma (fuplasma) and brain homogenate (fubrain) were determined by equilibrium dialysis using 96-well HTD-dialysis plates with dialysis membranes (molecular weight cut off 12-14 KDa). One side of the HTD-dialysis plate was loaded with matrix (plasma or brain homogenate) and the other side with buffer (100 mM sodium phosphate buffer, pH 7.4). Test compounds were dissolved in DMSO then spiked (5 μL of 0.2 mM) into blank (995 μL) plasma or diluted brain homogenate (1:4 ratio in phosphate buffer) giving a final nominal concentration 1 μM (≤0.5% DMSO). The matrices were loaded into respective chambers and equilibrated against phosphate buffer for 5 h at 37° C. (in a humidified air incubator with 5% CO2 with shaking). Samples from both chambers (buffer and plasma or brain homogenate) were aliquoted to fresh 96-well polypropylene plates then matrix matched using an equal volume of opposite blank matrix before extraction with cold solvent (3 volumes acetonitrile) containing an appropriate bioanalytical internal standard. After centrifugation (20 min, 3200 g, 4° C.) the supernatants were diluted with appropriate volumes of water and compound concentrations were quantified by LC/MS-MS against matrix matched calibration standards. The fuplasma and fubrain were calculated according to equation 4 below.
[formula] Where [F] is the compound concentration on the buffer (receiver) side of the membrane; [T] is the compound concentration on the plasma or brain (donor) side of the membrane; D is the matrix dilution factor which is determined as D=4 for brain matrix and D=1 for plasma matrix in these assays.

[6] = Hepatic microsomal intrinsic clearance assay; format: in vitro ADME; details: pooled liver microsomes, pH 7.4; liver microsomes 0.5 mg/mL; 1 μM; NADPH; 1 hour at 37° C.; LLOQ 0.36 L/h/kg
Experimental: Compounds (final concentration 1 μM, 1% organic) of the invention were incubated for 1 hour at 37° C., with shaking, in phosphate buffer (pH 7.4) containing commercially sourced pooled liver microsomes (final concentration 0.5 mg/mL). […] At designated time points (0, 5, 10, 20, 30 and 60 minutes) ice-cold acetonitrile containing internal standard (300 μL) was added to an incubation well to stop the reaction then mixed and centrifuged (3220 g for 20 minutes at 4° C.). Supernatant was diluted (1:4) with deionized water then analyzed by LC-MS/MS.

[7] = 0.5 nM kinase, 1.0 mM ATP, IC50=Ki,app+[E]/2, n≥2 tests

| Structure (SMILES) | IC50 [2, 7] [nM] | IC50 [3] [nM] | IC50 [4] [nM] | CLint scaled at 1 μM [6] [mL/min/kg] | further results |
| --- | --- | --- | --- | --- | --- |
| CCOc1ncccc1-n1nc2c(c1C)Nc1ncc3c(Cl)nn(c3n1)CCCO2 [Example 2, 8-Chloro-2-(2-ethoxypyridin-3-yl)-3-methyl-2,4,12,13-tetrahydro-11H-5,7-(azenometheno)dipyrazolo[3,4-b:5′,1′-g][1]oxa[4,6,8]triazacycloundecine] | 0.28 | 0.98 | 0.35 | 20.8 | Kp at 0.5 h ([1]; brain, n=3): 1.2 ± 0.7; Kp uu at 0.5 h ([1]; brain, n=3): 0.35 ± 0.18; concentration at 0.5 h ([1]; brain, n=3, read-out: Total brain concentration): 31 ± 11 ng/g; concentration at 0.5 h ([1]; plasma, n=3, read-out: Total plasma concentration): 32 ± 18 ng/mL; fubrain (% free) ([5]; rat brain homogenate): 2.7 % free; fuplasma (% free) ([5]; rat plasma): 9.7 % free |
| CCc1ncccc1-n1nc2c(c1C)Nc1ncc3c(Cl)nn(c3n1)CCCO2 [Example 4, 8-Chloro-2-(2-ethylpyridin-3-yl)-3-methyl-2,4,12,13-tetrahydro-11H-5,7-(azenometheno)dipyrazolo[3,4-b:5′,1′-g][1]oxa[4,6,8]triazacycloundecine] | 0.82 | 7 | 1.8 | 23.8 |  |
| Cc1c2c(nn1-c1cccnc1C(F)(F)F)OCCCn1nc(Cl)c3cnc(nc31)N2 [Example 17, 8-Chloro-3-methyl-2-(2-(trifluoromethyl)pyridin-3-yl)-2,4,12,13-tetrahydro-11H-5,7-(azenometheno)dipyrazolo[3,4-b:5′,1′-g][1]oxa[4,6,8]triazacycloundecine] | 3.1 | 20 | 5.5 | 15.3 |  |
| Cc1c2c(nn1-c1cccnc1OC(F)(F)F)OCCCn1nc(Cl)c3cnc(nc31)N2 [Example 20, 8-Chloro-3-methyl-2-(2-(trifluoromethoxy)pyridin-3-yl)-2,4,12,13-tetrahydro-11H-5,7-(azenometheno)dipyrazolo[3,4-b:5′,1′-g][1]oxa[4,6,8]triazacycloundecine] | 0.48 | 3.4 | 1.1 | 18.3 |  |
| COc1nnccc1-n1nc2c(c1C)Nc1ncc3c(Cl)nn(c3n1)CCCO2 [Example 21, 8-Chloro-2-(3-methoxypyridazin-4-yl)-3-methyl-2,4,12,13-tetrahydro-11H-5,7-(azenometheno)dipyrazolo[3,4-b:5′,1′-g][1]oxa[4,6,8]triazacycloundecine] | 0.45 | 0.94 | 0.24 | 25.7 |  |
| [2H]C([2H])([2H])c1c2c(nn1-c1cccnc1C)OCCCn1nc(Cl)c3cnc(nc31)N2 [Example 26, 8-Chloro-3-(methyl-d3)-2-(2-methylpyridin-3-yl)-2,4,12,13-tetrahydro-11H-5,7-(azenometheno)dipyrazolo[3,4-b:5′,1′-g][1]oxa[4,6,8]triazacycloundecine] |  |  |  | 11.7 |  |
| [2H]C([2H])([2H])c1c2c(nn1-c1cc(C)cnc1C)OCCCn1nc(Cl)c3cnc(nc31)N2 [Example 27, 8-Chloro-2-(2,5-dimethylpyridin-3-yl)-3-(methyl-d3)-2,4,12,13-tetrahydro-11H-5,7-(azenometheno)dipyrazolo[3,4-b:5′,1′-g][1]oxa[4,6,8]triazacycloundecine] |  |  |  | 8.17 |  |
| [2H]C([2H])([2H])c1c2c(nn1-c1cccnc1OC)OCCCn1nc(Cl)c3cnc(nc31)N2 [Example 28, 8-Chloro-2-(2-methoxypyridin-3-yl)-3-(methyl-d3)-2,4,12,13-tetrahydro-11H-5,7-(azenometheno)dipyrazolo[3,4-b:5′,1′-g][1]oxa[4,6,8]triazacycloundecine] |  | 0.76 | 0.23 | 10.2 | IC50 [2]: 0.63 nM |
| [2H]C([2H])([2H])c1c2c(nn1-c1cc(F)cnc1C)OCCCn1nc(Cl)c3cnc(nc31)N2 [Example 30, 8-Chloro-2-(5-fluoro-2-methylpyridin-3-yl)-3-(methyl-d3)-2,4,12,13-tetrahydro-11H-5,7-(azenometheno)dipyrazolo[3,4-b:5′,1′-g][1]oxa[4,6,8]triazacycloundecine] |  |  |  | 14 |  |
